Laboratory results taken from paper PMC7026418, “The kinase polypharmacology landscape of clinical PARP inhibitors” (Scientific Reports, 2020).
Read-outs that look alike come from different tables or passages of the source.

Legend:
Test in all cases: biochemical
Set-up in all cases: DiscoveRx KINOMEscan active site-directed competition binding; percent of control kinase bound to immobilised ligand
PRKCE = target: T1, PRKCE (Homo sapiens, UniProt Q02156)
T1 sequence (Q02156 1-737): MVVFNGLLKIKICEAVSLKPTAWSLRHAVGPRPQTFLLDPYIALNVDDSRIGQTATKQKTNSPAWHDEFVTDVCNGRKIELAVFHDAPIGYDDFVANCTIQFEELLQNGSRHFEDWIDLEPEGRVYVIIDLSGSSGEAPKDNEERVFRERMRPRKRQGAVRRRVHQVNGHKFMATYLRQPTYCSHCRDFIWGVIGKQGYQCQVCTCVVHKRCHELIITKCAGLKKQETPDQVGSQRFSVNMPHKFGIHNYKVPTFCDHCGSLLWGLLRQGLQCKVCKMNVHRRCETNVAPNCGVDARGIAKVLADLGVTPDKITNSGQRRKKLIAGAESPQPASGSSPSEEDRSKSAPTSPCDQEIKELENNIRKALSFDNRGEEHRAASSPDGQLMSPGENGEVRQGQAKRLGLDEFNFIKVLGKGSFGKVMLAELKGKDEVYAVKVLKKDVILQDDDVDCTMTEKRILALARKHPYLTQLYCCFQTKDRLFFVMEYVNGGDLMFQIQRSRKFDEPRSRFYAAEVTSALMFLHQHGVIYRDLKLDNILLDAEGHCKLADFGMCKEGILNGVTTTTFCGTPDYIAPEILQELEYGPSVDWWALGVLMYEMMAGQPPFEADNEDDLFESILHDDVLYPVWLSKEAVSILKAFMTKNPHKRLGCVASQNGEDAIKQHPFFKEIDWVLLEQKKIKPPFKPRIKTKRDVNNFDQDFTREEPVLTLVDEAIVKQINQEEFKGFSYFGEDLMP

CDKL5 = target: T2, CDKL5 (Homo sapiens, UniProt O76039)
T2 sequence (O76039 1-960): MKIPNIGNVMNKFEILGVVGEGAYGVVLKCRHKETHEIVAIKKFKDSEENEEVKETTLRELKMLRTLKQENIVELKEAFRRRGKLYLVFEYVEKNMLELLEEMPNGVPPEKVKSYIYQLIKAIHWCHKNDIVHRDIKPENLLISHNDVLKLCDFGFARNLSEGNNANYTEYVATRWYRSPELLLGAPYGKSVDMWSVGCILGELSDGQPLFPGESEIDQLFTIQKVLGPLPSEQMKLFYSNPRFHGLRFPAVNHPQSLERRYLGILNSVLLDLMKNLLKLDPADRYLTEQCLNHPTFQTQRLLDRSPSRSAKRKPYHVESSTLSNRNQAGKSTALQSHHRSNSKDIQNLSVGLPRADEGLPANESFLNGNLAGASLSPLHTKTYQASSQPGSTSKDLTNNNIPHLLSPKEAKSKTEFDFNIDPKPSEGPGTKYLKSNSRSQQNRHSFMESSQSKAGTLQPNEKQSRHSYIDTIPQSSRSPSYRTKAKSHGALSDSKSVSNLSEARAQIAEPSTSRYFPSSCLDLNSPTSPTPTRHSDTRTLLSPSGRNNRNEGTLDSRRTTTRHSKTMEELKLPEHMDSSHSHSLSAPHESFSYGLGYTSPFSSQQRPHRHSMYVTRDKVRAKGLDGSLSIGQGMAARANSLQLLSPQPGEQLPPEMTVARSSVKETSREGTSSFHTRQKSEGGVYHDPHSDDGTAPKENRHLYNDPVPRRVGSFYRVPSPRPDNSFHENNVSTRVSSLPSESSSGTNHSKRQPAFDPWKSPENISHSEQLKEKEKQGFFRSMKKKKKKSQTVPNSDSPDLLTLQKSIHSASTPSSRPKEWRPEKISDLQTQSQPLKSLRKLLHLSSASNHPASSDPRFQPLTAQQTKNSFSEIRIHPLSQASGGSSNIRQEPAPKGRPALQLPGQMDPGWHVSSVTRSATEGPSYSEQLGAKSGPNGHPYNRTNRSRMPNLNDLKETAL

TAOK1 = target: T3, TAOK1 (Homo sapiens, UniProt Q7L7X3)
T3 sequence (Q7L7X3 1-1001): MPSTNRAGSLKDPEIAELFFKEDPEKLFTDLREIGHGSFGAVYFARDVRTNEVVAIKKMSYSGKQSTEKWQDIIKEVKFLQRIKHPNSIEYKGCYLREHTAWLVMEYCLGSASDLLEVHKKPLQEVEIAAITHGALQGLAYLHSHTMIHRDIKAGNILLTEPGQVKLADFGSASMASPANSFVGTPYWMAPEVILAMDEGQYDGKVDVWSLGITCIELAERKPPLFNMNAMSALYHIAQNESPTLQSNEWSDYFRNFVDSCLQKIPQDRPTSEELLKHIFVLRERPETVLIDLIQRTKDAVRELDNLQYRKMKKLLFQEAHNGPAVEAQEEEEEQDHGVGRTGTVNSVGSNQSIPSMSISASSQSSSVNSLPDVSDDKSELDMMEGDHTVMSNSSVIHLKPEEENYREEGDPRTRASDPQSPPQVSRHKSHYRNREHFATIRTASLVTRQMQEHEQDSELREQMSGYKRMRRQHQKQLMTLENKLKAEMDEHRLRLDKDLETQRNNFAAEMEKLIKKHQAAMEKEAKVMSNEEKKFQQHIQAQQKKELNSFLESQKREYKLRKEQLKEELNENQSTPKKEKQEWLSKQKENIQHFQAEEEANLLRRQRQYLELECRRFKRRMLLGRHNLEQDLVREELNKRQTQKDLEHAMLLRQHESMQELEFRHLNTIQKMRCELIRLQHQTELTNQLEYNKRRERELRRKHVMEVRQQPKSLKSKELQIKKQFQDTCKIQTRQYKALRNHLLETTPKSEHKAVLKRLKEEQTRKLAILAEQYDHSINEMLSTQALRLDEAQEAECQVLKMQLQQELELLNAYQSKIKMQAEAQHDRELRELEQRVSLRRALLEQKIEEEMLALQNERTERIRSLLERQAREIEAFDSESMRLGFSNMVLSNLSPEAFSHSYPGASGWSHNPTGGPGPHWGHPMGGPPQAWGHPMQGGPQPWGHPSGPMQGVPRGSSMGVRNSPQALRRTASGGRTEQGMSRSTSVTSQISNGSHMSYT

[1] = target: T4, RSK3(Kin.Dom.2-C-terminal) (Homo sapiens, UniProt Q15349)
T4 construct: gene RPS6KA2; Kin.Dom.2-C-terminal
T4 sequence (Q15349 whole entry): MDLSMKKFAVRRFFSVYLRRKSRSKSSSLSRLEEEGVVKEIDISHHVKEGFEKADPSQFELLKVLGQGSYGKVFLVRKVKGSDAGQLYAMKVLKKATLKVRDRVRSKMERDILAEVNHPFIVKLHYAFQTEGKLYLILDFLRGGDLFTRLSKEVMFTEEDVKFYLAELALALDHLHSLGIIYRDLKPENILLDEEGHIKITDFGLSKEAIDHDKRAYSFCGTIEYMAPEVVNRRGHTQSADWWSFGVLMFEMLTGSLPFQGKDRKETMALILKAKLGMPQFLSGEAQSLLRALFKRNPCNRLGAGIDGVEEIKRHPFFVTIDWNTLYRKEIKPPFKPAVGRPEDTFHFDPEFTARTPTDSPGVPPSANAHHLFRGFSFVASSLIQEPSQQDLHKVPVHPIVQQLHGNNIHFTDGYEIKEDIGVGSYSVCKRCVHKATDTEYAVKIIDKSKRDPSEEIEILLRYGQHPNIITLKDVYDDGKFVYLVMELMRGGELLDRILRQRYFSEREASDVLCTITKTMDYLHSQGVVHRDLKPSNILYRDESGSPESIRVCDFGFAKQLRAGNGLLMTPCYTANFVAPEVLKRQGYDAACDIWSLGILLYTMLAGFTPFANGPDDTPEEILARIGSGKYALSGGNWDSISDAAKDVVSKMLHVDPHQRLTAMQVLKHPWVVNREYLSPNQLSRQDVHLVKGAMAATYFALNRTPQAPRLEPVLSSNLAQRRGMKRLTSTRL

[2] = read-out: Talazoparib (BMN 673) / %Ctrl @ 10000nM
[3] = read-out: Olaparib / %Ctrl @ 10000nM
[4] = read-out: Rucaparib / %Ctrl @ 10000nM, binding competition, % of control
[5] = read-out: Niraparib (MK-4827) / %Ctrl @ 10000nM

Cn1ncnc1[C@H]1c2n[nH]c(=O)c3cc(F)cc(c23)N[C@@H]1c1ccc(F)cc1 [Talazoparib]
percent of control binding at 10 µM (PRKCE; [2]): 93% | percent of control binding at 10 µM (CDKL5; [2]): 100% | percent of control binding at 10 µM (TAOK1; [2]): 100% | percent of control binding at 10 µM [1, 2]: 100%

O=C(c1cc(Cc2n[nH]c(=O)c3ccccc23)ccc1F)N1CCN(C(=O)C2CC2)CC1 [Olaparib]
percent of control binding at 10 µM (PRKCE; [3]): 93% | percent of control binding at 10 µM (CDKL5; [3]): 98% | percent of control binding at 10 µM (TAOK1; [3]): 96% | percent of control binding at 10 µM [1, 3]: 70%

CNCc1ccc(-c2[nH]c3cc(F)cc4c3c2CCNC4=O)cc1 [Rucaparib]
percent of control binding at 10 µM (PRKCE; [4]): 74% | percent of control binding at 10 µM (CDKL5; [4]): 30% | percent of control binding at 10 µM (TAOK1; [4]): 72% | percent of control binding at 10 µM [1, 4]: 67%

NC(=O)c1cccc2cn(-c3ccc([C@@H]4CCCNC4)cc3)nc12 [Niraparib]
percent of control binding at 10 µM (PRKCE; [5]): 100% | percent of control binding at 10 µM (CDKL5; [5]): 86% | percent of control binding at 10 µM (TAOK1; [5]): 80% | percent of control binding at 10 µM [1, 5]: 93%
